Results reported in patent US8440830B2, “Tetrahydro-fused pyridines as histone deacetylase inhibitors” (4SC AG, priority 2007, dated 2013).
Like-named read-outs stand apart in the source and are kept apart here.

Tests used:
[1] = system: RKO colon carcinoma cells with conditional p21^waf1 expression; test: Cell cycle dependent cytotoxicity, RKO exop21 cell system; assay type: cell-based; settings: Homo sapiens, 72 h
Protocol: (§1) The anti-proliferative activity of the histone deacetylase inhibitory compounds as described herein, is evaluated using the following cell lines: HeLa and HeLa-KB (cervical carcinoma), H460 (non small cell lung cancer), A549 (non-small cell lung cancer), MCF7 (breast carcinoma), MCF10A (normal, non tumorigenic breast epithelial), MDA-MB468 (breast carcinoma), MDA-MB435 (breast carcinoma), MDA-MB231 (breast carcinoma), SKBR-3 (breast carcinoma), SKOV-3 (ovarial carcinoma), A-2780 (ovarial carcinoma), RKO (colon carcinoma), HCT-15 (colon carcinoma), HCT-116 (colon carcinoma), PC3 (prostate carcinoma), BPH1 (benign prostate hyperplasia), AsPC1 (pancreatic carcinoma), Ca127 (tongue carcinoma), A-431 (vulva carcinoma), Hec1A (endometrial carcinoma), Saos-2 (osteosarcoma), U87MG (glioblastoma), WM266-4 (melanoma), K562 (chronic myeloid leukemia), EOL1 (acute hypereosinophilic myeloid leukemia), CCRF-CEM and CCRF-CEM VCR1000 (acute lymphoblastic leukemia sensitive and resistant towards Vincristine). For quantification of cellular proliferation/living cells the Alamar Blue (Resazurin) cell viability assay is applied (O'Brien et al. Eur J Biochem 267, 5421-5426, 2000). In this assay Resazurin is reduced to the fluorescent resorufine by cellular dehydrogenase activity, correlating with viable, proliferating cells. The examples are dissolved as 20 mM solutions in dimethylsulfoxide (DMSO) and subsequently diluted in semi-logarithmic steps. Cell lines are seeded at respective density into 96 well flat bottom plates in a volume of 200 μl per well. 24 h after seeding 1 μl each of the compound dilutions are added into each well of the 96 well plate. Each compound dilution is tested as quadruplicates. Wells containing untreated control cells are filled with 200 μl DMEM medium containing 0.5% v:v DMSO. The cells are then incubated with the compounds for 72 h at 37° C. in a humidified atmosphere containing 5% carbon dioxide. To determine the viability of the cells, 20 μl of a Resazurin solution (Sigma; 90 mg/l) are added. After 4 h incubation at 37° C. the fluorescence is measured at an extinction of λ=544 nm and an emission of λ=590 nm. For the calculation of the cell viability the emission value from untreated cells is set as 100% viability and the emission rates of treated cells are set in relation to the values of untreated cells. Viabilities are expressed as % values. The corresponding IC50 values of the compounds for cytotoxic activity are determined from the concentration-effect curves by means of non-linear regression.
For determination of cell-cycle dependent cytotoxicity, the RKO exop21 cell system is applied (Schmidt et al. Oncogene 19: 2423-2429, 2000). Briefly, RKO cells with/without p21^waf1 expression (2×10^4 cells/well induced, 6×10^3 cells/well not induced) are treated with the compounds for 72 h and metabolic activity quantified as described before. The expression of p21^waf1 was induced by treatment with Pronasterone A, causing a complete proliferation arrest of RKO cells in the G1 and G2 phases of the cell division cycle.

[2] = system: A549 NSCLC cells; test: Cellular cytotoxicity assay (Alamar Blue), A549; assay type: cell-based; settings: Homo sapiens, 72 h, upper end given as ≧100, read-out: IC50 (μM), cytotoxicity towards A549 NSCLC cells
Procedure, shortened: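 Resazurin-to-resorufin fluorescence (ex 544, em 590 nm, after 4 h) gave viability as % of untreated cells following 72 h compound exposure at 37 °C. Compounds were added in semi-logarithmic dilutions 24 h post-seeding, quadruplicate wells; IC50 fitted by non-linear regression of concentration-effect curves.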

[3] = system: fully transformed malignant cancer cell lines; test: Anti-proliferative activity, selection of cell lines (Alamar Blue); assay type: cell-based; settings: Homo sapiens, 72 h, mean over cell lines, read-out: Mean IC50 values as calculated for fully malignant cancer cell lines
Protocol: as §1
The anti-proliferative activity of compounds from examples 1, 2, 3, 12 and 150 is evaluated by using a broad selection of non-malignant cell lines and fully transformed malignant cancer cell lines.

[4] = system: histone H3 hyperacetylation in HeLa cervical carcinoma cells; test: Cellular histone H3 hyperacetylation assay; assay type: cell-based; settings: Homo sapiens, 24 h treatment
Text: To assess the cellular efficacy of a histone deacetylase inhibitor in vitro, an assay is set up in black clear-bottom 96-well plates and optimized for use on the Cellomics “ArrayScan II” platform for a quantitative calculation of histone acetylation. The protocol uses a polyclonal rabbit antibody, specifically binding to acetylated lysine 1-20 (including K 9 and K14) of human histone H3 on fixed cells with an Alexa Fluor 488 labeled goat anti rabbit-IgG used for counterstaining 5×10^3 HeLa cervical carcinoma cells/well (ATCC CCL-2) in 200 μl Dulbecco's modified Eagle's medium (DMEM) containing 10% fetal calf serum are seeded at day 1 in Packard view plates and incubated for 24 h under standard cell culture conditions. On day 2, 1 μl test compound (200× final concentration) is added and incubation continued for further 24 h. On day 3, the culture medium is discarded and attached cells fixed for 15 min at room temperature by addition of 100 μl fixation buffer (3.7% v:v formaldehyde in phosphate buffered saline/PBS). After discarding the fixation buffer and one wash with blocking solution (1% BSA, 0.3% Tween 20 in PBS), cells are permeabilized at room temperature by addition of 100 μl /well permeabilization buffer (30.8 mM NaCl, 0.54 mM Na2HPO4, 0.31 mM KH2PO4, 0.1% v:v Triton X-100) for 15 min at room temperature. After discarding the permeabilization buffer and washing twice with 100 μl/well blocking solution at room temperature, the 1st antibody (anti-K1-20 histone H3 antibody, Calbiochem No. 382158) in blocking solution (50 μl/well) is added. After incubation for 1 h at room temperature, the wells are washed twice at room temperature with 100 μl/well blocking solution before addition of the 2nd antibody (goat-anti-rabbit Alexa Fluor 488; MoBiTec No. A -11008) in blocking solution (50 μl well). After further incubation for 1 h at room temperature, wells are washed twice with 100 μl/well blocking solution at room temperature. Finally, 100 μl/well PBS are added and image analysis performed on the Cellomics “ArrayScan II” platform. For EC50 determination, the percentage of positive cells showing nuclear fluorescence is determined and EC50 calculation done from concentration-effect curves by means of non-linear regression. For calibration, a positive (reference HDAC inhibitors like SAHA or NVP LBH-589) and a negative control were included.

[5] = molecular target: T1, HDAC11 (Homo sapiens, UniProt Q96DB2); settings: Kalita et al. 2005; one range for HDAC1, 2, 3 and 11; cited from earlier work
T1 sequence (Q96DB2 1-347): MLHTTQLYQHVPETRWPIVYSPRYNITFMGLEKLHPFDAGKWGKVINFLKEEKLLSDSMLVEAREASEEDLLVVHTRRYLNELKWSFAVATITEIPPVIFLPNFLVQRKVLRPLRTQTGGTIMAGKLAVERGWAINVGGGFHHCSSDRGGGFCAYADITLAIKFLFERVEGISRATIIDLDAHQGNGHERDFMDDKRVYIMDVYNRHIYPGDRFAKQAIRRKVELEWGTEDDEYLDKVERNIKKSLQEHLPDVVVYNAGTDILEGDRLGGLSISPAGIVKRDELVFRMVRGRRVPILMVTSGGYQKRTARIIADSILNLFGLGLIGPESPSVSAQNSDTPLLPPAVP

[6] = system: HDACs 4 to 8; settings: read-out: IC50 HDACs 4 to 8; Kalita et al. 2005; cited from earlier work
[7] = system: acute human T-lymphoblastic leukemia cell line CCRF-CEM; settings: about 10.000 unique accession numbers, Peart et al. 2005; cited from earlier work

Cc1ccc(S(=O)(=O)N2CCc3nc(C(=O)Nc4ccccc4N)sc3C2)cc1 [Example 150, N-(2-aminophenyl)-5-[(4-methylphenyl)sulfonyl]-4,5,6,7-tetrahydro[1,3]-thiazolo[5,4-c]pyridine-2-carboxamide]
IC50 ([1]; RKO arrested, p21^waf1 expressed, read-out: RKO arrested (p21^waf1 expressed) IC50): 1100 to 4900 nM
IC50 ([1]; RKO proliferating, p21^waf1 not induced, read-out: RKO proliferating IC50): 1100 to 4000 nM
IC50 [2]: ≥ 0.2 µM
IC50 [3]: 2400 to 5400 nM
EC50 ([4]; read-out: EC50, induction of histone H3 hyperacetylation): 150 to 15000 nM
EC50 ([4]; read-out: −lg EC50, induction of histone H3 hyperacetylation): 251 to 15800 nM

Nc1ccccc1NC(=O)c1ccc(CNc2nccc(-c3cccnc3)n2)cc1 [MGCD0103]
IC50 [5]: 100 to 2000 nM
IC50 [6]: > 20000 nM

O=C(CCCCCCC(=O)Nc1ccccc1)NO [SAHA, suberoylanilide hydroxamic acid]
share of analyzed genes whose expression was changed [7]: 22.1%
